Values of other authors, collected in patent publication US10500196B2 (Aequus Pharmaceuticals Inc., priority 2015, dated 2019).

Details: oral DICLEGIS tablet

In the case of `Cc1ncc(CO)c(CO)c1O.Cl` [Pyridoxine Hydrochloride, 3,4-pyridinedimethanol,5-hydroxy-6-methyl-,hydrochloride], the “absorption when administered with food” value is given as “delayed” and the bioavailability with food is given as “reduces”.
